# Assays:
# Type in all cases: functional
# [1] = tested on: Human immunodeficiency virus 1; experiment: Antiviral activity against Human immunodeficiency virus 1 clone 14 harboring integrase S17N, T124N, T125A, M154I, S195C, V201I mutant gene relative to wild type HIV1
# [2] = tested on: Human immunodeficiency virus 1; experiment: Antiviral activity against Human immunodeficiency virus 1 3B harboring integrase G140S mutant infected in human MT4 cells assessed as inhibition of virus induced cytopathic effect relative to wild type HIV1
# [3] = tested on: Human immunodeficiency virus 1; experiment: Antiviral activity against Human immunodeficiency virus 1 clone 50_2 harboring integrase R20K, A23V, E92G, T124N, I141V, G193E, V201I, T206S, I220V, D279G infected in human MT4 cells assessed as inhibition of virus induced cytopathic effect relative to wild type HIV1
# [4] = tested on: Human immunodeficiency virus 1; experiment: Antiviral activity against Human immunodeficiency virus 1 clone 15 harboring integrase S17N, I84I, T124N, T125A, M154I, S195C mutant gene relative to wild type HIV1
# [5] = tested on: Human immunodeficiency virus 1; experiment: Antiviral activity against Human immunodeficiency virus 1 3B harboring integrase M154I mutant infected in human MT4 cells assessed as inhibition of virus induced cytopathic effect relative to wild type HIV1
# [6] = tested on: Human immunodeficiency virus 1; experiment: Antiviral activity against Human immunodeficiency virus 1 clone 16 harboring integrase S17N, T124N, T125A, M154I, S195C, V201I mutant gene relative to wild type HIV1
# [7] = tested on: Human immunodeficiency virus 1; experiment: Antiviral activity against Human immunodeficiency virus 1 clone 13 harboring integrase S17N, T124N, T125A, G140S, M154I, S195C mutant gene relative to wild type HIV1
# [8] = tested on: Human immunodeficiency virus 1; experiment: Antiviral activity against Human immunodeficiency virus 1 3B harboring integrase T97A mutant infected in human MT4 cells assessed as inhibition of virus induced cytopathic effect relative to wild type HIV1
# [9] = tested on: Human immunodeficiency virus 1; experiment: Antiviral activity against Human immunodeficiency virus 1 clone 7 harboring integrase E11D, S17T, L45V, M50T, I72V, L74I, K111T, T125A relative to wild type HIV1
# [10] = tested on: Human immunodeficiency virus 1; experiment: Antiviral activity against Human immunodeficiency virus 1 3B harboring integrase L74I mutant infected in human MT4 cells assessed as inhibition of virus induced cytopathic effect relative to wild type HIV1
# [11] = tested on: Human immunodeficiency virus 1; experiment: Antiviral activity against Human immunodeficiency virus 1 clone 20 harboring integrase E11D, S17T, L45V, M50T, I72V, L74I, K111T, T125A, I217V relative to wild type HIV1
# [12] = tested on: Human immunodeficiency virus 1; experiment: Antiviral activity against Human immunodeficiency virus 1 HXB2 assessed as inhibition of virus induced cytopathic effect relative to wild type HIV1
# [13] = tested on: Human immunodeficiency virus 1; experiment: Antiviral activity against Human immunodeficiency virus 1 3B harboring integrase E157Q mutant infected in human MT4 cells assessed as inhibition of virus induced cytopathic effect relative to wild type HIV1
# [14] = tested on: Human immunodeficiency virus 1; experiment: Antiviral activity against Human immunodeficiency virus 1 3B harboring integrase I72V mutant infected in human MT4 cells assessed as inhibition of virus induced cytopathic effect relative to wild type HIV1
# [15] = tested on: Human immunodeficiency virus 1; experiment: Antiviral activity against Human immunodeficiency virus 1 clone 13 harboring integrase E11D, S17T, L45V, M50T, I72V, L74I, K111T, S119G, T125A relative to wild type HIV1
# [16] = tested on: Human immunodeficiency virus 1; experiment: Antiviral activity against Human immunodeficiency virus 1 3B harboring integrase T206S mutant infected in human MT4 cells assessed as inhibition of virus induced cytopathic effect relative to wild type HIV1
# [17] = tested on: Human immunodeficiency virus 1; experiment: Antiviral activity against Human immunodeficiency virus 1 clone 9 harboring integrase E11D, S17T, L45V, M50T, I72V, L74I, K111T, S119G, relative to wild type HIV1
# [18] = tested on: Human immunodeficiency virus 1; experiment: Antiviral activity against Human immunodeficiency virus 1 3B harboring integrase S230N mutant infected in human MT4 cells assessed as inhibition of virus induced cytopathic effect relative to wild type HIV1
# [19] = tested on: Human immunodeficiency virus 1; experiment: Antiviral activity against Human immunodeficiency virus 1 clone 11 harboring integrase S17N, I84I, T124N, T125A, M154I, S195C mutant gene relative to wild type HIV1
# [20] = tested on: Human immunodeficiency virus 1; experiment: Antiviral activity against Human immunodeficiency virus 1 clone 8 harboring integrase E11D, S17T, L45V, M50T, S57G, L74I, K111T, S119G, T125A relative to wild type HIV1
# [21] = tested on: Human immunodeficiency virus 1; experiment: Antiviral activity against Human immunodeficiency virus 1 clone 17 harboring integrase S17N, T124N, T125A, M154I, S195C mutant gene relative to wild type HIV1
# [22] = tested on: Human immunodeficiency virus 1; experiment: Antiviral activity against Human immunodeficiency virus 1 3B harboring integrase V201I mutant infected in human MT4 cells assessed as inhibition of virus induced cytopathic effect relative to wild type HIV1
# [23] = tested on: Human immunodeficiency virus 1; experiment: Antiviral activity against Human immunodeficiency virus 1 clone 4 harboring integrase S17N, S57G, I84I, T124N, T125A, M154I, S195C mutant gene relative to wild type HIV1
# [24] = tested on: Human immunodeficiency virus 1; experiment: Antiviral activity against Human immunodeficiency virus 1 3B harboring integrase V151I mutant infected in human MT4 cells assessed as inhibition of virus induced cytopathic effect relative to wild type HIV1
structure (smiles),measurement,setting,value
Cc1nnc(C(=O)NC(C)(C)c2nc(C(=O)NCc3ccc(F)cc3)c(O)c(=O)n2C)o1 [RALTEGRAVIR],fold change (FC),[1],1.8
same,fold change (FC),[2],2.4
same,fold change (FC),[3],1.8
same,fold change (FC),[4],0.7
same,fold change (FC),[5],0.8
same,fold change (FC),[6],1.3
same,fold change (FC),[7],2.4
same,fold change (FC),[8],1.6
same,fold change (FC),[9],1.5
same,fold change (FC),[10],1.2
same,fold change (FC),[11],1.5
same,fold change (FC),[12],1
same,fold change (FC),[13],1.2
same,fold change (FC),[14],0.9
same,fold change (FC),[15],2
COc1cc2c(cc1Cc1cccc(Cl)c1F)c(=O)c(C(=O)O)cn2[C@H](CO)C(C)C [ELVITEGRAVIR],fold change (FC),[16],1.1
same,fold change (FC),[1],1.3
same,fold change (FC),[17],1
same,fold change (FC),[2],5.6
same,fold change (FC),[3],13
same,fold change (FC),[18],0.8
same,fold change (FC),[19],0.9
same,fold change (FC),[20],0.8
same,fold change (FC),[4],0.6
same,fold change (FC),[5],1
same,fold change (FC),[21],1
same,fold change (FC),[6],1
same,fold change (FC),[7],5.6
same,fold change (FC),[22],0.9
same,fold change (FC),[23],1.4
same,fold change (FC),[8],2.6
same,fold change (FC),[9],2.7
same,fold change (FC),[24],0.6
same,fold change (FC),[11],1
same,fold change (FC),[12],1.2
same,fold change (FC),[14],0.8

# From ChEMBL document CHEMBL1687760, “Secondary integrase resistance mutations found in HIV-1 minority quasispecies in integrase therapy-naive patients have little or no effect on susceptibility to integrase inhibitors” (Antimicrob Agents Chemother, 2010)
